Data as given in patent US20060074103A1, “Cyclic beta-amino acid derivatives as factor Xa inhibitors” (priority 2004, published 2006).

melting point: 301 to 303 °C
SMILES: O=C(N[C@H]1CCCC[C@@H]1C(=O)Nc1ccc(Cl)cn1)c1ccc(-n2ccccc2=O)cc1 [Example 1]
